Measured values taken from PubChem BioAssay AID2060904 (Molecular Pharmacology Branch, DTP, NCI, 2025).

System: 349418-098-R-PDC complex spheroid viability
Assay: Anticancer human tumor 349418-098-R-PDC patient-derived lung adenocarcinoma cell line growth inhibition [RAS]
Details: for IC50: curve of first compound; for viability, T/C: stronger effect = lower value
Method in brief: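 Agents were tested in combination matrices in half-log decrements from a top concentration at or near clinical Cmax (10 microM if undetermined). Targets were multi-cell spheroids of tumour lines plus HUVEC and MSC stromal cells.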

[1] = second compound 0.0316 µM, first compound 0.00316 µM
[2] = second compound 0.0316 µM, first compound 0.01 µM
[3] = second compound 0.0316 µM, first compound 0.0316 µM
[4] = second compound 0.0316 µM, first compound 0.1 µM
[5] = second compound 0.0316 µM, first compound 0.316 µM
[6] = second compound 0.0316 µM, first compound 1 µM
[7] = second compound 0.1 µM, first compound 0.00316 µM
[8] = second compound 0.1 µM, first compound 0.01 µM
[9] = second compound 0.1 µM, first compound 0.0316 µM
[10] = second compound 0.1 µM, first compound 0.1 µM
[11] = second compound 0.1 µM, first compound 0.316 µM
[12] = second compound 0.1 µM, first compound 1 µM
[13] = second compound 0.316 µM, first compound 0.00316 µM
[14] = second compound 0.316 µM, first compound 0.01 µM
[15] = second compound 0.316 µM, first compound 0.0316 µM
[16] = second compound 0.316 µM, first compound 0.1 µM
[17] = second compound 0.316 µM, first compound 0.316 µM
[18] = second compound 0.316 µM, first compound 1 µM
[19] = second compound 1 µM, first compound 0.00316 µM
[20] = second compound 1 µM, first compound 0.01 µM
[21] = second compound 1 µM, first compound 0.0316 µM
[22] = second compound 1 µM, first compound 0.1 µM
[23] = second compound 1 µM, first compound 0.316 µM
[24] = second compound 1 µM, first compound 1 µM
[25] = second compound 0.0316 µM, first compound 0.000949 µM
[26] = second compound 0.0316 µM, first compound 0.003 µM
[27] = second compound 0.0316 µM, first compound 0.00949 µM
[28] = second compound 0.0316 µM, first compound 0.03 µM
[29] = second compound 0.0316 µM, first compound 0.0949 µM
[30] = second compound 0.0316 µM, first compound 0.3 µM
[31] = second compound 0.1 µM, first compound 0.000949 µM
[32] = second compound 0.1 µM, first compound 0.003 µM
[33] = second compound 0.1 µM, first compound 0.00949 µM
[34] = second compound 0.1 µM, first compound 0.03 µM
[35] = second compound 0.1 µM, first compound 0.0949 µM
[36] = second compound 0.1 µM, first compound 0.3 µM
[37] = second compound 0.316 µM, first compound 0.000949 µM
[38] = second compound 0.316 µM, first compound 0.003 µM
[39] = second compound 0.316 µM, first compound 0.00949 µM
[40] = second compound 0.316 µM, first compound 0.03 µM
[41] = second compound 0.316 µM, first compound 0.0949 µM
[42] = second compound 0.316 µM, first compound 0.3 µM
[43] = second compound 1 µM, first compound 0.000949 µM
[44] = second compound 1 µM, first compound 0.003 µM
[45] = second compound 1 µM, first compound 0.00949 µM
[46] = second compound 1 µM, first compound 0.03 µM
[47] = second compound 1 µM, first compound 0.0949 µM
[48] = second compound 1 µM, first compound 0.3 µM
[49] = second compound 3.16 µM, first compound 0.000949 µM
[50] = second compound 3.16 µM, first compound 0.003 µM
[51] = second compound 3.16 µM, first compound 0.00949 µM
[52] = second compound 3.16 µM, first compound 0.03 µM
[53] = second compound 3.16 µM, first compound 0.0949 µM
[54] = second compound 3.16 µM, first compound 0.3 µM
[55] = second compound 10 µM, first compound 0.000949 µM
[56] = second compound 10 µM, first compound 0.003 µM
[57] = second compound 10 µM, first compound 0.00949 µM
[58] = second compound 10 µM, first compound 0.03 µM
[59] = second compound 10 µM, first compound 0.0949 µM
[60] = second compound 10 µM, first compound 0.3 µM
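Further: spheroids exposed to compound for seven days before viability readout.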

C=CC(=O)N1CCN(c2nc(OCC3CCCN3C)nc3c(F)c(-c4nc(N)cc(C)c4C(F)(F)F)c(Cl)cc23)C(C)C1 (stereo not drawn) + C#Cc1c(F)ccc2cc(O)cc(-c3ncc4c(N5CC6CCC(C5)N6)nc(OCC56CCCN5CC(F)C6)nc4c3F)c12
IC50 (second compound 0.0316 µM): > 1000 nM
IC50 (second compound 0.1 µM): > 1000 nM
IC50 (second compound 0.316 µM): > 1000 nM
IC50 (second compound 1 µM): > 1000 nM
IC50 (second compound 3.16 µM): > 1000 nM
IC50 (second compound 10 µM): 272 nM
viability, T/C [1]: 82.8%
viability, T/C [2]: 105%
viability, T/C [3]: 112%
viability, T/C [4]: 75.1%
viability, T/C [5]: 111%
viability, T/C [6]: 69.8%
viability, T/C [7]: 74.3%
viability, T/C [8]: 124%
viability, T/C [9]: 104%
viability, T/C [10]: 87.2%
viability, T/C [11]: 98.3%
viability, T/C [12]: 83.9%
viability, T/C [13]: 65.6%
viability, T/C [14]: 125%
viability, T/C [15]: 109%
viability, T/C [16]: 79.7%
viability, T/C [17]: 89.3%
viability, T/C [18]: 87.6%
viability, T/C [19]: 81%
viability, T/C [20]: 114%
viability, T/C [21]: 82.9%
viability, T/C [22]: 91.2%
viability, T/C [23]: 83.2%
viability, T/C [24]: 77.9%
viability, T/C (second compound 3.16 µM, first compound 0.00316 µM): 77.4%
viability, T/C (second compound 3.16 µM, first compound 0.01 µM): 105%
viability, T/C (second compound 3.16 µM, first compound 0.0316 µM): 112%
viability, T/C (second compound 3.16 µM, first compound 0.1 µM): 73.3%
viability, T/C (second compound 3.16 µM, first compound 0.316 µM): 116%
viability, T/C (second compound 3.16 µM, first compound 1 µM): 75.2%
viability, T/C (second compound 10 µM, first compound 0.00316 µM): 91%
viability, T/C (second compound 10 µM, first compound 0.01 µM): 75%
viability, T/C (second compound 10 µM, first compound 0.0316 µM): 85.3%
viability, T/C (second compound 10 µM, first compound 0.1 µM): 66.8%
viability, T/C (second compound 10 µM, first compound 0.316 µM): 47.7%
viability, T/C (second compound 10 µM, first compound 1 µM): 7.82%

CC1(C)CCC(Nc2ncc(C(F)(F)F)c(-c3c[nH]c4c(P(C)(C)=O)c(C#N)ccc34)n2)CN1 (stereo not drawn) + C#Cc1c(F)ccc2cc(O)cc(-c3ncc4c(N5CC6CCC(C5)N6)nc(OCC56CCCN5CC(F)C6)nc4c3F)c12
IC50 (second compound 0.0316 µM): 1.12 nM
IC50 (second compound 0.1 µM): < 0.949 nM
IC50 (second compound 0.316 µM): < 0.949 nM
IC50 (second compound 1 µM): 1.34 nM
IC50 (second compound 3.16 µM): < 0.949 nM
IC50 (second compound 10 µM): < 0.949 nM
viability, T/C [25]: 54.5%
viability, T/C [26]: 25.6%
viability, T/C [27]: 14.3%
viability, T/C [28]: 11.7%
viability, T/C [29]: 11.1%
viability, T/C [30]: 7.01%
viability, T/C [31]: 34.8%
viability, T/C [32]: 24%
viability, T/C [33]: 17%
viability, T/C [34]: 9.95%
viability, T/C [35]: 8.49%
viability, T/C [36]: 8.13%
viability, T/C [37]: 49.9%
viability, T/C [38]: 26.9%
viability, T/C [39]: 12.6%
viability, T/C [40]: 10.3%
viability, T/C [41]: 10.5%
viability, T/C [42]: 8.25%
viability, T/C [43]: 57.1%
viability, T/C [44]: 33.4%
viability, T/C [45]: 13%
viability, T/C [46]: 10.9%
viability, T/C [47]: 11.2%
viability, T/C [48]: 8.31%
viability, T/C [49]: 43.3%
viability, T/C [50]: 24.5%
viability, T/C [51]: 12.6%
viability, T/C [52]: 10.2%
viability, T/C [53]: 9.93%
viability, T/C [54]: 8.57%
viability, T/C [55]: 48.4%
viability, T/C [56]: 23.8%
viability, T/C [57]: 16.3%
viability, T/C [58]: 10.4%
viability, T/C [59]: 9.78%
viability, T/C [60]: 7.07%

CCc1c2c(nc3ccc(O)cc13)-c1cc3c(c(=O)n1C2)COC(=O)[C@]3(O)CC + C#Cc1c(F)ccc2cc(O)cc(-c3ncc4c(N5CC6CCC(C5)N6)nc(OCC56CCCN5CC(F)C6)nc4c3F)c12
IC50 (second compound 0.0316 µM): 1.41 nM
IC50 (second compound 0.1 µM): 1.76 nM
IC50 (second compound 0.316 µM): 1.76 nM
IC50 (second compound 1 µM): 1.96 nM
IC50 (second compound 3.16 µM): 1.75 nM
IC50 (second compound 10 µM): 1.18 nM
viability, T/C [25]: 58.9%
viability, T/C [26]: 33.1%
viability, T/C [27]: 10.8%
viability, T/C [28]: 4.93%
viability, T/C [29]: 3.89%
viability, T/C [30]: 2.53%
viability, T/C [31]: 74.7%
viability, T/C [32]: 28.7%
viability, T/C [33]: 10.6%
viability, T/C [34]: 5.19%
viability, T/C [35]: 4.46%
viability, T/C [36]: 2.82%
viability, T/C [37]: 70.9%
viability, T/C [38]: 32.1%
viability, T/C [39]: 8.77%
viability, T/C [40]: 4.98%
viability, T/C [41]: 3.85%
viability, T/C [42]: 2.45%
viability, T/C [43]: 81%
viability, T/C [44]: 32%
viability, T/C [45]: 9.89%
viability, T/C [46]: 6.27%
viability, T/C [47]: 4.67%
viability, T/C [48]: 2.58%
viability, T/C [49]: 65.8%
viability, T/C [50]: 36.2%
viability, T/C [51]: 10.1%
viability, T/C [52]: 5.33%
viability, T/C [53]: 3.62%
viability, T/C [54]: 2.21%
viability, T/C [55]: 57.9%
viability, T/C [56]: 17.1%
viability, T/C [57]: 4.95%
viability, T/C [58]: 2.94%
viability, T/C [59]: 1.84%
viability, T/C [60]: 0.77%

C=CC(=O)Nc1cc(Nc2nccc(-c3cn(C)c4ccccc34)n2)c(OC)cc1N(C)CCN(C)C + C=CC(=O)N1CCN(c2nc(OCC3CCCN3C)nc3c(F)c(-c4nc(N)cc(C)c4C(F)(F)F)c(Cl)cc23)C(C)C1
IC50 (second compound 0.00316 µM): > 1000 nM
IC50 (second compound 0.01 µM): > 1000 nM
IC50 (second compound 0.0316 µM): > 1000 nM
IC50 (second compound 0.1 µM): > 1000 nM
IC50 (second compound 0.316 µM): > 1000 nM
IC50 (second compound 1 µM): > 1000 nM
viability, T/C (second compound 0.00316 µM, first compound 0.00316 µM): 80.7%
viability, T/C (second compound 0.00316 µM, first compound 0.01 µM): 119%
viability, T/C (second compound 0.00316 µM, first compound 0.0316 µM): 91.5%
viability, T/C (second compound 0.00316 µM, first compound 0.1 µM): 69.9%
viability, T/C (second compound 0.00316 µM, first compound 0.316 µM): 64.8%
viability, T/C (second compound 0.00316 µM, first compound 1 µM): 72.9%
viability, T/C (second compound 0.01 µM, first compound 0.00316 µM): 83.7%
viability, T/C (second compound 0.01 µM, first compound 0.01 µM): 97.5%
viability, T/C (second compound 0.01 µM, first compound 0.0316 µM): 90.5%
viability, T/C (second compound 0.01 µM, first compound 0.1 µM): 71.8%
viability, T/C (second compound 0.01 µM, first compound 0.316 µM): 61.3%
viability, T/C (second compound 0.01 µM, first compound 1 µM): 56.6%
viability, T/C [1]: 86.6%
viability, T/C [2]: 129%
viability, T/C [3]: 86.1%
viability, T/C [4]: 96%
viability, T/C [5]: 80.5%
viability, T/C [6]: 52.8%
viability, T/C [7]: 65.5%
viability, T/C [8]: 123%
viability, T/C [9]: 89.4%
viability, T/C [10]: 75.4%
viability, T/C [11]: 87.9%
viability, T/C [12]: 69.2%
viability, T/C [13]: 74.9%
viability, T/C [14]: 99.9%
viability, T/C [15]: 100%
viability, T/C [16]: 117%
viability, T/C [17]: 82.6%
viability, T/C [18]: 67%
viability, T/C [19]: 90.8%
viability, T/C [20]: 96.9%
viability, T/C [21]: 81.7%
viability, T/C [22]: 88.4%
viability, T/C [23]: 88.6%
viability, T/C [24]: 65.6%
